The values below are quoted from earlier work in patent publication US20170240913A1, “Methods and Materials for Producing Coreless Fruit” (The New Zealand Institute for Plant and Food Research …, priority 2014, published 2017).

This data set relates to frost-damaged Bramley's Seedling. The following applies: frost-damaged Bramley's Seedling (triploid, partially self-fertile).

For the compound `c1ccc(CNc2ncnc3c2ncn3C2CCCCO2)cc1` (centres unmarked) [SD8339], the parthenocarpy entry is “no additional benefits”.

As for `C=C1C[C@]23C[C@@]1(O)CC[C@H]2[C@@]12C=C[C@H](O)[C@@](C)(C(=O)O1)[C@H]2[C@@H]3C(=O)O` [GA3], the parthenocarpy entry is “not effective”.
